This is an account of results in US8999984B2, “Macrophage migration inhibitory factor antagonists and methods of using same” (University of Louisville Research Foundation, Inc., priority 2006, dated 2015).

One series deals with T1, recombinant MIF (rMIF) (Homo sapiens, UniProt P14174).
T1 construct: made in house
T1 sequence (P14174 2-115 limits assumed): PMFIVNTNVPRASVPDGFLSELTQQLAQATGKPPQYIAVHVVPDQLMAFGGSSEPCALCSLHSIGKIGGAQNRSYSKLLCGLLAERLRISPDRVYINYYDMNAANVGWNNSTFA
Kind of series: L-dopachrome methyl ester tautomerase assay. The class given is biochemical.

Series [1] concerns HIF-1α. In words: CoCl2-induced HIF-1α stabilization in MIA-PaCa pancreatic adenocarcinoma cells (nuclear lysate immunoblot). Type of series: cell-based, human. The protocol: FIGS. 9A-9C are pictures of immunoblots showing MIF tautomerase inhibitors block HIF-1 stabilization in an MIF-specific manner. […] After 5 hours, nuclear lysates were isolated and subjected to immunoblotting for HIF-1. In FIGS. 9A and 9B, MIA-PaCa pancreatic adenocarcinoma cells were used. In FIG. 9C, MIF+/+ and MIF−/− mouse embryonic fibroblasts were evaluated.
As noted hereinabove, (see FIG. 4), it has been determined that MIF is necessary for hypoxia and prolyl hydroxylase inhibitor-induced HIF-1αstabilization and subsequent hypoxic adaptation of pancreatic adenocarcinoma cells. It was next tested whether MIF pharmacologic inhibitors were capable of recapitulating the destabilizing effects on HIF-1α we had observed using MIF siRNA (FIG. 4). In addition to testing the newly-determined MIF antagonist 4-iodo-6-phenylpyrimidine (also referred to as “compound #16”), the TI compound identified in the Orita screen (FIG. 8) was also tested.
For orientation: A western blot detects proteins with antibodies after separation by electrophoresis.

The test system of the next series is A549 cells. In words: A549 cell migration in collagen coated transwell chambers. The class given is cell-based, human. The settings on record: FIG. 10B. The protocol:
In FIG. 10A, 500 nM rMIF was pre-mixed for 30 seconds with the indicated inhibitor concentrations followed by the addition of 2 mM final concentration of L-dopachrome methyl ester substrate. 5 minutes later OD 475 was measured spectrophotometrically (tautomerization leads to colorless substrate) and resulting data graphed. In FIG. 10B, 2×10^5 A549 cells transfected or pre-incubated with the indicated inhibitor or DMSO were added to the upper chamber of collagen coated transwell chambers. 16 hours later cells in the upper chamber were removed by swabbing and the bottom of the membranes were stained with crystal violet, solubilized, read at OD 570, and resulting data graphed.

Series [2] relates to A549 human lung adenocarcinoma cells. In words: A549 anchorage-independent growth in soft agar. The class given is cell-based. The settings on record: 10, 50 or 100 μM, 20 days; FIG. 11. On the procedure: FIG. 11 is a graph showing inhibitors of MIF prevent anchorage-independent growth. 10^5 A549 human lung adenocarcinoma cells were plated in soft agar, containing vehicle (0.1% DMSO) or 10, 50 or 100 μM ISO-1 or 4-iodo-6-phenylpyrimidine (CMPD 16). 20 days later, colonies were stained and enumerated. Data are representative of two independent experiments.

The next series concerns the target T2, MIF/sCD74 (Homo sapiens, UniProt P14174).
T2 construct: made in house; host or cells: E. coli BL21 (DE3)pLysS (sCD74)
T2 sequence (P14174 2-115 limits assumed): T1 sequence (P14174 2-115 limits assumed)
In words: MIF/MIF receptor (CD74) capture assay. The class given is binding. The settings on record: 0.1 μM antagonist against 0.2 μM biotinylated MIF (maximal inhibition possible 50%); FIG. 14B. The protocol: FIGS. 14A-14C are a schematic (FIG. 14C) of a MIF/MIF receptor capture assay and graphs of data collected from the assay (FIGS. 14A and 14B) that provides a tool for structure-function studies of MIF muteins and candidate inhibitors. […] FIG. 14A is a graph of data from the assay where CD74 coated plates were pre-incubated with the indicated concentrations of native MIF (MIF), denatured MIF or P1G MIF followed by the addition of 0.2 μM biotin-hrMIF. FIG. 14B is a graph of data from the assay where 1.0 μM of denatured MIF (dMIF), native MIF (MIF) or anti-CD74 were pre-incubated with soluble CD74 for 30 mins before adding 0.2 μM biotin-hrMIF. For inhibitors, 0.1 μM ISO-1 or 4-iodo-6-phenyl pyrimidine (Cmp16) were pre-incubated for 30 mins with 0.2 μM biotin-hrMIF before adding mixture to CD74 coated plate. In both FIGS. 14A and 14B, plates were developed 2 hours later by incubating Streptavidin-AP followed by PnPP and measurement at OD405.
As previously noted, the ability of small molecule antagonists to block MIFs biological functions requires the blockade of MIF binding to its cell surface receptor (Meyer-Siegler et al., 2006). […]
96 well plates can be coated with 60 μl/well of purified, soluble CD74 (CD74^73-232) at 0.1 mg/ml and incubated at 4° C. overnight. […] After washing, 60 μl/well of PNPP (Sigma) is added and allowed to develop in the dark until being read at 405 nm.

Another series deals with MIF. Kind of series: MIF depletion by siRNA in MIA-Paca-2 cells (immunoblot). Conditions: FIG. 4A. Type of series: cell-based, human. On the procedure: (§1) Nuclear and cytosolic extracts from MIF-depleted cells were exposed to normoxia, anoxia (FIG. 4A) or hypoxia (FIG. 4B) and immunoblotted for HIF-1α. FIG. 4C is a graph showing real time PCR analysis of VEGF mRNA levels from control and MIF-depleted cells exposed to hypoxia for different times.
(§2) MIF-specific siRNA was transfected into MIA-Paca-2 cells before being incubated in 0.2% O2 (anoxia) for 16 hours. […] To more thoroughly investigate the requirements for MIF in hypoxia-mediated HIF-1α stabilization, a time course evaluating MIF containing vs. deficient pancreatic adenocarcinoma cells exposed to 1% O2 (hypoxia) was performed.

For series [3], the system named is HIF-1α. In words: Anoxia-induced HIF-1α stabilization in siRNA transfected MIA-Paca-2 cells. Type of series: cell-based, human. The settings on record: 0.2% O2 (anoxia) 16 hours; FIG. 4A. On the procedure: as §1, §2
The next series concerns VEGF. In words: CoCl2-induced VEGF expression and secretion (ELISA). Type of series: cell-based. Conditions: read-out: suppression of PHD inhibitor (CoCl2) induced VEGF. From the text: It was next tested whether the observed differences in the catalytic inhibitory activities between these two compounds was similarly observed in this biological assay of MIF inhibition. […] Of note, this ˜5 fold difference in biological inhibitory activity closely corresponds to the ˜5 fold difference in enzymatic inhibitory activity that was observed when comparing these two compounds (FIG. 8).
For orientation: ELISA stands for enzyme-linked immunosorbent assay.

d = 2'-deoxy (DNA); r = 2'-OH (RNA)

Experimental for recombinant MIF (rMIF): 500 nM recombinant MIF (rMIF) was pre-mixed for either 5 (filled) or 10 (open) minutes with the indicated inhibitor concentrations followed by the addition of 2 mM final concentration of L-dopachrome methyl ester substrate. 5 minutes later OD 475 was measured spectrophotometrically, with tautomerization leading to colorless substrate.
Dopachrome tautomerase assay. […] MIF catalysis and inhibitory studies can be performed as described (Lubetsky et al., 2002). […] Activity can be determined at room temperature by adding dopachrome methyl ester (0.3 ml) to a cuvette containing 500 nM rMIF (Bernhagen et al., 1994) in 50 mM potassium phosphate buffer, pH 6, 0.5 mM EDTA and 5 minutes later measuring the decrease in absorbance at 475 nm spectrophotometrically. […] Additionally, candidate inhibitors identified in the last section of the present Example can be dissolved in DMSO at various concentrations and added to the cuvette (final concentration of DMSO will be no more than 0.1%) with the MIF 1 minute prior to the addition of the dopachrome substrate.

As to `COC(=O)CC1CC(c2ccc(O)cc2)=NO1` (centres unmarked) [ISO-1, S, R-3-(4-hydroxyphenyl)-4,5-dihydro-5-isoxazole acetic acid methyl ester, reference compound], the “enzyme inhibition at 10 μM” value at recombinant MIF (rMIF) (10 μM, FIG. 10A) was “completely inactive”. Also, the “inhibition of CoCl2-induced HIF-1α stabilization” value in the series on HIF-1α [1] (concentrations of 100 μM or higher) is given as “only moderately effective”. In addition, the “migration inhibition at 10 μM” value in the series with A549 cells is “completely inactive”. The “inhibition of A549 soft agar growth” value in series [2] is “inhibit A549 soft agar growth”. Further, the “inhibition of MIF receptor (CD74) binding” value at MIF/sCD74 is “very efficient blocking”.

“MIF siRNA: short interfering RNA (siRNA) oligos designed against human MIF; sense SEQ ID NO:3, antisense SEQ ID NO:4 (sense CCUUCUGGUGGGGAGAAAUTT; antisense AUUUCUCCCCACCAGAAGGTT; sugars from the 5' end r19 d2, backbone not given here)”: the “loss of cytoplasmic MIF expression” value in the series with MIF is recorded as “greater than 90%”. Besides, the “HIF-1α stabilization in nuclei after MIF depletion” value in the series with HIF-1α [3] was “completely deficient”.

Consider `O=c1c(-c2ccc(O)c(O)c2)coc2cc(O)ccc12` [TI, 3′, 4′,7-tryhydroxyisoflavone, reference compound], for which, on recombinant MIF (rMIF) (TI from two commercial sources), the “MIF inhibitory activity in applicant's assay compared with reported Ki” value is listed as “several orders of magnitude weaker than claimed”. For the same compound, the “suppression of HIF-1α, of control” value with HIF-1α [1] (10 μM, FIG. 9B) is given as “no inhibitory activity”. Further, the “inhibition of HIF-1α stabilization” value in the series on HIF-1α [1] (50 μM, FIG. 9B) was “only slight inhibitory activity”. In addition, the inhibition at 50 µM in the series with VEGF was around 20%.
